Assay results as given in patent US20020151595A1, “Carboxylic acid amides having antithrombotic activity” (priority 2001, published 2002).

Each compound was assayed against T1, human factor Xa (Homo sapiens, UniProt P00742) (assay: Inhibition of factor Xa, enzyme-kinetic measurement with chromogenic substrate). Conditions: chromogenic substrate Chromozym X 200 μMol/l, pH 8.0, 37° C., photometric at 405 nm.
T1 construct: human factor Xa; purchased Roche
Format: biochemical
Protocol: Method: Enzyme-kinetic measurement with chromogenic substrate. The quantity of anpnitroaniline (pNA) released from the colourless chromogenic substrate by human factor Xa is determined photometrically at 405 nm. It is proportional to the activity of the enzyme used. The inhibition of the enzyme activity by the test substance (in relation to the solvent control) is determined at various concentrations of test substance and from this the IC50 is calculated, as the concentration which inhibits the factor Xa used by 50%.
Material: Tris(hydroxymethyl)-aminomethane buffer (100 mmol) and sodium chloride (150 mMol), pH 8.0
Factor Xa (Roche), spec. activity: 10 U/0.5 ml, final concentration: 0.175 U/ml per reaction mixture
Substrate Chromozym X (Roche), final concentration: 200 μMol/l per reaction mixture
Procedure: 10 μl of a 23.5-times concentrated starting solution of the test substance or solvent (control), 175 μl of tris(hydroxymethyl)-aminomethane buffer and 25 μl of a 1.65 U/ml Factor Xa working solution are incubated for 10 minutes at 37° C. After the addition of 25 μl of Chromozym X working solution ([…]) the sample is measured in a photometer (SpectraMax 250) at 405 nm for 150 seconds at 37° C.
1. Determining the maximum increase (deltaOD/minutes) over 3 measuring points.
2. Determining the % inhibition based on the solvent control.
3. Plotting a dosage/activity curve (% inhibition vs substance concentration).
4. Determining the IC50 by interpolating the X value (substance concentration) of the dosage/activity curve at Y=50% inhibition.

T1 sequence (P00742 235-488 limits assumed): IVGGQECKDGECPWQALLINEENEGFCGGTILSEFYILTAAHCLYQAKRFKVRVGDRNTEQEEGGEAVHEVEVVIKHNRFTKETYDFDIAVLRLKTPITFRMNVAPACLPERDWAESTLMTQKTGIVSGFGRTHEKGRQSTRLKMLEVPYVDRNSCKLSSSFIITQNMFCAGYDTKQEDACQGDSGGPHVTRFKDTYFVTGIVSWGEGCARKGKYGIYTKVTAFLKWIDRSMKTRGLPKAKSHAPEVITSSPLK
T1 sequence (P00742 41-179 partner limits assumed): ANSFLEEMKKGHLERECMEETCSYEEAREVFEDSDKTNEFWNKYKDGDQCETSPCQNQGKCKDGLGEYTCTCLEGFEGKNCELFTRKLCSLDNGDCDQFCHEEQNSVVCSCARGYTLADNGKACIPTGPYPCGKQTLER

IC50 [µM]	Compound
0.033	N=C(N)c1ccc(O)c(CC(=O)Nc2ccc(C(=O)N3CCCC3)c(Cl)c2)c1 [(3)]
0.011	N=C(N)c1ccc(O)c(CC(=O)Nc2ccc(C(=O)N3CCCC3)c(C(F)(F)F)c2)c1 [(4)]
0.028	Cc1cc(NC(=O)C(C)(C)c2cccc(C(=N)N)c2)ccc1C(=O)N1CCCC1 [(1)]
0.32	Cc1cc(NC(=O)Cc2cc(C(=N)N)ccc2O)ccc1C(=O)C1CCCNC1 (stereo not shown) [(2)]
